Reference: paper PMC5844868, “Increased intracellular activity of MP1102 and NZ2114 against Staphylococcus aureus in vitro and in vivo” (Scientific Reports, 2018)
≈ marks a conversion by molar mass, not a printed value. Like-named read-outs stand apart in the source and are kept apart here. Peptide text beside a SMILES is read from it.

How the values were obtained:
[1] = system: IL-10; assay: Cytokine ELISA in S. aureus-infected RAW 264.7 cells; assay type: cell-based, mouse; details: 25 μg/ml, 24 h after treatment
Experimental: (§1) To investigate the effects of MP1102 and NZ2114 on cytokine levels in cells infected with S. aureus, RAW264.7 cells (2.5 × 10^5 cells/ml) seeded into 12-well plates were incubated with MRSA ATCC43300 (MOI = 100:1) for 30 min followed by treatment with 50 μg/ml lysostaphin for 1 h to remove non-phagocytosed bacteria. The cells were then treated with 25 μg/ml MP1102, NZ2114 and vancomycin for 12 h and 24 h. Cell-free culture supernatants were collected and the concentrations of cytokines (TNF-α, IL-1β and IL-10) were determined by Jiaxuan Biotech. Co. Ltd. (Beijing, China) using an ELISA kit[58],[59].

[2] = system: IL-1β; assay: as above; assay type: cell-based, mouse; details: 25 μg/ml, 24 h after infection with MRSA ATCC43300; range over treatments
Experimental: as §1

[3] = system: MSSA ATCC25923; assay: Mouse peritonitis model; assay type: in vivo
Experimental: The mice were infected by peritoneal injection with different S. aureus strains, including MSSA ATCC25923 (5 × 10^8 CFU), MRSA ATCC43300 (5 × 10^8 CFU) and high virulent CVCC546 (5 × 10^7 CFU), and treated with a single dose of drugs ([…], 20, 30 and 40 mg/kg for ATCC43300 and CVCC546) at 10 min after infection. Twenty-four hours after treatment, the mice were killed and peritoneal fluids were obtained by washing with 5 ml ice-cold PBS. The total number of bacteria in the fluids was determined before any further procedures and then divided into two equal fractions of 1.5 ml each for the following purposes: i) for extracellular bacteria quantification, one fraction was centrifuged for 10 min at 4 °C (300 g) and the supernatant CFU count was quantified and ii) for intracellular bacteria quantification, the other fraction was centrifuged for 5 min at 4 °C (1,000 rpm). The cells were collected and treated with 100 μg/ml gentamicin (MSSA ATCC25923) or 50 μg/ml lysostaphin (MRSA ATCC43300 and high virulent CVCC546) for 1 h at 37 °C to kill extracellular bacteria. The cells were washed twice with ice-cold PBS to remove any anti-extracellular bacterial drug. Subsequently, the cells were lysed and counted as described above for the in vitro experiment method[14],[54].

[4] = system: MSSA ATCC25923; assay: MIC in MHB at pH 7.3 and 5.0; assay type: cell-based; details: Staphylococcus aureus
[5] = system: MRSA ATCC43300; assay: MIC in MHB at pH 7.3 and 5.0; assay type: cell-based; details: Staphylococcus aureus
[6] = system: RAW 264.7 macrophages; assay type: cell-based, mouse; details: 24 h, MTT
Experimental: The cytotoxicity of MP1102 and NZ2114 was tested by a colorimetric 3-(4, 5-dimethyl-2-thiazolyl)-2, 5-diphenyl-2-H-tetrazolium bromide (MTT) assay. Cells were added into 96-well microtiter plates (2.5 × 10^4 cells/well) and incubated for 24 h. After another 24 h incubation with MP1102 and NZ2114 (1 to 256 μg/ml), MTT solution was added and incubated for 4 h. Followed the removing of the MTT, dimethyl sulfoxide (DMSO) (150 μl/well) was added and the absorbance was measured at 570 nm. Untreated cells were used as a control. The cell survival rate was calculated using the following formula: survival rate (%) = Abs570 nm of treated sample / Abs570 nm of control × 100. The cytotoxicity detection was repeated in triplicate.
118 were incubated with 1-256 μg/ml for 24 h and subsequently cell viability was determined using the MTT
119 assay. Results are means ± S.D. for three experiments.
(1 picture or pasted object on this page, not shown here)

[7] = system: MRSA ATCC43300; assay: Extracellular dose-response in broth, 24 h; assay type: cell-based, Staphylococcus aureus
Experimental: (§2) Dose-response curves for the extracellular activities of the peptides were performed as previously described with some modifications[2],[14],[56],[57]. For extracellular activity, MSSA ATCC25923, MRSA ATCC43300 and high virulent S. aureus CVCC546 cells were adjusted to a density of 10^5 CFU/ml.
(§3) The Hill equation was used to analyze the dose-effect relationships of the intracellular and extracellular activities of MP1102 and NZ2114 against S. aureus. The Emax, Cs and goodness of fit (R^2) were calculated by non-linear regression using GraphPad Prism version 6 (GraphPad Prism Software, San Diego, CA, USA). The other statistical procedures, means and SEMs were performed and calculated using IBM SPSS Statistics 21.0.

[8] = system: MSSA ATCC25923; assay: Extracellular dose-response in broth, 24 h; assay type: cell-based, Staphylococcus aureus
Experimental: as §2, §3

[9] = system: Virulent S. aureus CVCC546; assay: Extracellular dose-response in broth, 24 h; assay type: cell-based, Staphylococcus aureus
Experimental: as §2, §3

[10] = system: MRSA ATCC43300 phagocytosed by RAW 264.7 macrophages; assay: Intracellular dose-response in RAW 264.7 macrophages, 24 h; assay type: cell-based, Staphylococcus aureus
Experimental: (§4) For intracellular activity, RAW 264.7 macrophages (2.5 × 10^5 cells/ml) were seeded into a 6-well plate (1.5 ml/well) and cultured for 24 h in DMEM with 10% FBS (without antibiotics). Meanwhile, mid-log phase S. aureus strains (MSSA ATCC25923, MRSA ATCC43300 and high virulent CVCC546) were collected by centrifugation, diluted to a concentration of 2.5 × 10^7 CFU/ml in DMEM with 10% FBS (without antibiotic), and incubated with RAW 264.7 macrophages (1.5 ml/well) for 0.5 h. In total, 100 μg/ml gentamicin (for MSSA ATCC25923) or 50 μg/ml lysostaphin (for MRSA ATCC43300 and virulent CVCC546) was added to the cells and incubated for 1 h to remove non-phagocytosed bacteria. […] The numbers of intracellular bacteria were measured at 0 h and 24 h using the above method.
as §3

[11] = system: MSSA ATCC25923 phagocytosed by RAW 264.7 macrophages; assay: as above; assay type: cell-based, Staphylococcus aureus; details: Hill equation
Experimental: as §4, §3

[12] = system: Virulent S. aureus CVCC546 phagocytosed by RAW 264.7 macrophages; assay: as above; assay type: cell-based, Staphylococcus aureus
Experimental: as §4, §3

[13] = system: high virulent S. aureus CVCC546; assay: Mouse peritonitis model; assay type: in vivo; details: 20 mg/kg, 24 h
Experimental: The mice were infected by peritoneal injection with different S. aureus strains, including MSSA ATCC25923 (5 × 10^8 CFU), MRSA ATCC43300 (5 × 10^8 CFU) and high virulent CVCC546 (5 × 10^7 CFU), and treated with a single dose of drugs (5 mg/kg for ATCC25923, 20, 30 and 40 mg/kg for ATCC43300 and CVCC546) at 10 min after infection. Twenty-four hours after treatment, the mice were killed and peritoneal fluids were obtained by washing with 5 ml ice-cold PBS. The total number of bacteria in the fluids was determined before any further procedures and then divided into two equal fractions of 1.5 ml each for the following purposes: i) for extracellular bacteria quantification, one fraction was centrifuged for 10 min at 4 °C (300 g) and the supernatant CFU count was quantified and ii) for intracellular bacteria quantification, the other fraction was centrifuged for 5 min at 4 °C (1,000 rpm). The cells were collected and treated with 100 μg/ml gentamicin (MSSA ATCC25923) or 50 μg/ml lysostaphin (MRSA ATCC43300 and high virulent CVCC546) for 1 h at 37 °C to kill extracellular bacteria. The cells were washed twice with ice-cold PBS to remove any anti-extracellular bacterial drug. Subsequently, the cells were lysed and counted as described above for the in vitro experiment method[14],[54].

[14] = system: macrophages; details: at 24 h; cited from earlier work
From the text: Due to several limitations (including protein binding conditions and differences in the pharmacokinetics) in the in vitro macrophage intracellular model, an in vivo mouse peritonitis model was also examined to further evaluate the intracellular efficiency of MP1102 and NZ2114. The intracellular bacterial killing efficacy of MP1102 and NZ2114 was decreased in vivo compared to extracellular killing, though the difference was less than the in vitro model, which may be related to the complex in vivo environment weakening the antibacterial efficiency and the eradication of extracellular bacteri ...

[15] = system: virulent staphylococcal strains; details: relative efficacy; cited from earlier work
From the text: This study is the first evaluation of the intracellular anti-staphylococcal properties of the NZ2114 derivative MP1102 using both in vitro and in vivo methods. […] As a corresponding in vivo mouse model, RAW 264.7 macrophages were chosen to evaluate in vitro intracellular activity in this study.

[16] = Hill equation, 95% CI in brackets
[17] = change at 24 h from original inoculum, extrapolated, Hill equation
[18] = static concentration, graphical interpolation
[19] = Intracellular, Hill equation, 95% CI in brackets
[20] = Intracellular, change at 24 h from original inoculum, extrapolated, Hill equation

CC[C@H](C)[C@@H]1NC(=O)[C@H](CO)NC(=O)[C@H](CCCCN)NC(=O)[C@@H]2CSSC[C@@H](C(=O)N[C@@H](Cc3ccc(O)cc3)C(=O)O)NC(=O)[C@H](CCCCN)NC(=O)[C@@H]3CSSC[C@H](NC(=O)[C@H](CCCCN)NC(=O)[C@H](C(C)C)NC(=O)[C@H](CC(=O)O)NC(=O)[C@H](CC(=O)O)NC(=O)[C@H](CCC(=O)O)NC(=O)[C@H](CCC(=O)O)NC(=O)[C@H](Cc4c[nH]c5ccccc45)NC(=O)[C@@H]4CCCN4C(=O)CNC(=O)[C@H](CC(N)=O)NC(=O)[C@@H](NC(=O)CNC(=O)[C@H](Cc4ccccc4)NC(=O)CN)CSSC[C@H](NC(=O)[C@H](Cc4ccc(O)cc4)NC(=O)CNC(=O)CNC(=O)[C@H](CCCCN)NC(=O)[C@H](Cc4ccc(O)cc4)NC(=O)CNC(=O)[C@H](CCCCN)NC1=O)C(=O)N[C@@H](C)C(=O)N[C@@H](CCCCN)C(=O)NCC(=O)NCC(=O)N[C@@H](Cc1ccccc1)C(=O)N[C@@H](C(C)C)C(=O)N3)C(=O)N[C@@H](Cc1c[nH]cn1)C(=O)N[C@@H](CC(N)=O)C(=O)N[C@@H](Cc1c[nH]cn1)C(=O)N2 [MP1102] (HELM PEPTIDE1{G.F.G.C.N.G.P.W.E.E.D.D.V.K.C.H.N.H.C.K.S.I.K.G.Y.K.G.G.Y.C.A.K.G.G.F.V.C.K.C.Y}$PEPTIDE1,PEPTIDE1,4:R3-30:R3|PEPTIDE1,PEPTIDE1,15:R3-37:R3|PEPTIDE1,PEPTIDE1,19:R3-39:R3$$$V2.0; N-terminus and C-terminus assumed; bridges inferred)
IL-10 level change, in contrast to the decrease with NZ2114 and vancomycin [1]: 4.8 pg/mL
suppressed production of IL-1β [2]: 18.7 to 49.5 pg/mL
colonies on the plates ([3]; 20 mg/kg and 10 mg/kg dose, data not shown): no colonies were observed

CN[C@H](CC(C)C)C(=O)N[C@H]1C(=O)N[C@@H](CC(N)=O)C(=O)N[C@H]2C(=O)N[C@H]3C(=O)N[C@H](C(=O)N[C@H](C(=O)O)c4cc(O)cc(O)c4-c4cc3ccc4O)[C@H](O)c3ccc(c(Cl)c3)Oc3cc2cc(c3O[C@@H]2O[C@H](CO)[C@@H](O)[C@H](O)[C@H]2O[C@H]2C[C@](C)(N)[C@H](O)[C@H](C)O2)Oc2ccc(cc2Cl)[C@H]1O [Vancomycin]
MIC ([4]; pH 5, read-out: MICs): < 0.004 µg/mL
MIC ([4]; pH 7.3, read-out: MICs): 0.125 µg/mL (≈ 0.0863 µM)
MIC ([5]; pH 5, read-out: MICs): 1 µg/mL (≈ 0.69 µM)
MIC ([5]; pH 7.3, read-out: MICs): 1 µg/mL (≈ 0.69 µM)
survival rate ([6]; 128 μg/ml): 100%
survival rate ([6]; 256 μg/ml): 85.9%
EC50 [7, 16]: 5.40 multiples of the MIC
Emax (log CFU, 95% CI) [7, 17]: −5.89 log CFU
Cs [7, 18]: ~5.88 multiples of the MIC
EC50 [8, 16]: 1.87 multiples of the MIC
Emax (log CFU, 95% CI) [8, 17]: −5.37 log CFU
Cs [8, 18]: ~1.48 multiples of the MIC
EC50 [9, 16]: 0.92 multiples of the MIC
Emax (log CFU, 95% CI) [9, 17]: −5.85 log CFU
Cs [9, 18]: ~1.10 multiples of the MIC
EC50 [10, 19]: 1.10 multiples of the MIC
Emax (log CFU, 95% CI) [10, 20]: 0.43 log CFU
resistant rates for the highest test concentrations compared to the untreated group ([10]; intracellular, 24 h): 93.03%
EC50 ([11]; 95% CI in brackets): 24.29 multiples of the MIC
Emax (log CFU, 95% CI) ([11]; change at 24 h from original inoculum, extrapolated to infinitely high concentration): −4.85 log CFU
EC50 [12, 19]: 3.53 multiples of the MIC
Emax (log CFU, 95% CI) [12, 20]: 0.46 log CFU
resistant rates for the highest test concentrations compared to the untreated group ([12]; intracellular, 24 h): 99.68%
IL-10 levels decreased by [1]: 12.0 pg/mL
effect on bacterial load ([3]; 5 mg/kg, 24 h): no significant effects were observed
log reduction, extracellular [13]: 4.9 log
log reduction, intracellular [13]: 3.7 log
log reduction, total [13]: 3.9 log
accumulation in macrophages [14]: up to 8 fold

CC[C@H]1OC(=O)[C@H](C)[C@@H](O[C@H]2C[C@@](C)(OC)[C@@H](O)[C@H](C)O2)[C@H](C)[C@@H](O[C@@H]2O[C@H](C)C[C@H](N(C)C)[C@H]2O)[C@](C)(O)C[C@@H](C)CN(C)[C@H](C)[C@@H](O)[C@]1(C)O [azithromycin]
Emax [15]: −0.5 log CFU

C[C@@H](O)[C@H]1C(=O)N2C(C(=O)O)=C(SCCN=CN)C[C@H]12 [imipenem]
Emax [15]: −0.9 log CFU

Cc1onc(-c2ccccc2)c1C(=O)N[C@@H]1C(=O)N2[C@@H]1SC(C)(C)[C@@H]2C(=O)O [oxacillin]
Emax [15]: −0.68 log CFU
